Several values for one entry are separate records, joined by “and”; a condition that tells them apart may be missing. Equal values may be shown once.
System: 777334-354-R2-J4-PDC tumor spheroids with HUVEC/MSC, viability
Assay: Anticancer human tumor 777334-354-R2-J4-PDC patient-derived pancreatic adenocarcinoma cell line growth inhibition [GQUAD]
Conditions: for viability, T/C: stronger effect = lower value
Source text: DNA G-quadruplex Stabilizer Agents in Combinations in Complex Spheroids
A high-throughput screen of multi-cell type tumor spheroids was designed to identify active combinations of DNA G-quadruplex stabilizer agents and targeted small molecules. Complex spheroids include a stromal component modeled by human endothelial cells (HUVEC) and fibroblasts modeled by human mesenchymal stem cells (MSCs). The concentration ranges selected for each drug and investigational agent were based upon clinically achievable concentrations if the clinical Cmax of the agent was known.
Compounds. The drugs and investigational agents: pidnarulex (CX-5461; NSC782164), APTO-253 (NSC789042), BRACO-19 (NSC847499), peposertib (NSC802822), ceralasertib (NSC780249), elimusertib (NSC800525), camonsertib (NSC841442), AZD-1390 (NSC803789), olaparib (NSC753686), talazoparib (NSC767125), ART-558 (NSC835418), sotorasib (NSC818433), MRTX-1133 (NSC836407), SN-38 (NSC673596), topotecan (NSC609699), etoposide (NSC141540), doxorubicin (NSC123127), gemcitabine (NSC613327), 5-fluorouracil (NSC19893), paclitaxel (NSC125973), vemurafenib (NSC761431), panobinostat (NSC761190), R-306465 (JNJ-16241199; NSC773264), adavosertib (NSC754352), TP-3654 (NSC805149), carboplatin (NSC241240), KSQ-4279 (NSC840948), and staurosporine (NSC755774) were obtained from the National Cancer Institute (NCI) Developmental Therapeutics Program Chemical Repository (34). The FDA-approved anticancer drug set is available from the NCI Developmental Therapeutics Program. […] The stock solutions were prepared in dimethyl sulfoxide (DMSO, Sigma-Aldrich, St. Louis, MO, cat. D2650) at 800-fold the tested concentration and stored at -70 degrees C prior to their use. All drugs and investigational agents were tested over a range starting from a high concentration at or near the clinical Cmax and decreasing in half-log increments. If the clinical Cmax for an agent had not been determined, the highest concentration tested was 10 microM.
2.3 Cell Culture. All cells were maintained in an incubator at 37 degrees C and 5% CO2 with 95% humidity. The PDC lines were cultured according to standard operating procedures established by the NCI PDMR. All PDCs were thawed and cultured in Matrigel-coated flasks prepared with a working solution of 1X Ham's F-12 nutrient mix, without supplementation (Invitrogen, cat. 11765054), 100 U/mL penicillin-streptomycin (Invitrogen, cat. 15140122), and 2.5% Matrigel (Corning Inc., cat. 354248) for the first three passages. The 857933-349-R-J2-PDC line was cultured in 6C/Colon 1B media, which includes advanced DMEM/F-12 (Thermo Fisher Scientific, cat. 12634028), 10 mM HEPES (Thermo Fisher Scientific, cat. 15630080), 1X GlutaMAX supplement (Thermo Fisher Scientific, cat. 35050061), 0.1 mg/mL primocin (InvivoGen, cat. ant-pm-2), 10% defined fetal bovine serum, heat inactivated (HyClone Laboratories Inc., cat. SH30070.03HI), 50% L-WRN conditioned media (ATCC, cat. CRL-3276), 1.25 mM N-Acetyl-L-cysteine (Sigma-Aldrich, cat. A9165), 10 mM nicotinamide (Sigma-Aldrich, cat. N0636), 1X B-27 supplement (Thermo Fisher Scientific, cat. 17504044), 1X N-2 supplement (Thermo Fisher Scientific, cat. 17502048), 10 microM Y-27632 dihydrochloride (Tocris Bioscience, cat. 1254), and 50 ng/mL human EGF recombinant protein (Thermo Fisher Scientific, cat. PHG0311). The 485176-168-R4-J1-PDC line was cultured in Panc media, which includes all 6C/Colon 1B media components plus 100 ng/mL human FGF-10 (Thermo Fisher Scientific, cat. 100-26), 500 nM SB-431542 (Selleckchem, cat. S1067), and gastrin (Tocris, cat. 3006).
[…]
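Note: spheroids exposed to compounds for 7 days before readout.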

CCc1c2c(nc3ccc(O)cc13)-c1cc3c(c(=O)n1C2)COC(=O)[C@]3(O)CC + Cc1[nH]c2ccc(F)cc2c1-c1nc2c3cccnc3c3ncccc3c2[nH]1
IC50 (curve of first compound, second compound 0.0316 µM): 5.58 nM | IC50 (curve of first compound, second compound 0.1 µM): 6.14 nM | IC50 (curve of first compound, second compound 0.316 µM): 5.57 nM | IC50 (curve of first compound, second compound 1 µM): 3.44 nM | IC50 (curve of first compound, second compound 3.16 µM): < 0.999 nM | IC50 (curve of first compound, second compound 10 µM): < 0.999 nM | viability, T/C (second compound 0.0316 µM, first compound 0.000999 µM): 85.3% | viability, T/C (second compound 0.0316 µM, first compound 0.00316 µM): 54.5% | viability, T/C (second compound 0.0316 µM, first compound 0.00999 µM): 44.7% | viability, T/C (second compound 0.0316 µM, first compound 0.0316 µM): 27.3% | viability, T/C (second compound 0.0316 µM, first compound 0.0999 µM): 15% | viability, T/C (second compound 0.0316 µM, first compound 0.316 µM): 9.55% | viability, T/C (second compound 0.1 µM, first compound 0.000999 µM): 92.8% | viability, T/C (second compound 0.1 µM, first compound 0.00316 µM): 60.4% | viability, T/C (second compound 0.1 µM, first compound 0.00999 µM): 45% | viability, T/C (second compound 0.1 µM, first compound 0.0316 µM): 22.2% | viability, T/C (second compound 0.1 µM, first compound 0.0999 µM): 14.7% | viability, T/C (second compound 0.1 µM, first compound 0.316 µM): 9.29% | viability, T/C (second compound 0.316 µM, first compound 0.000999 µM): 83.6% | viability, T/C (second compound 0.316 µM, first compound 0.00316 µM): 60.9% | viability, T/C (second compound 0.316 µM, first compound 0.00999 µM): 38.2% | viability, T/C (second compound 0.316 µM, first compound 0.0316 µM): 26.4% | viability, T/C (second compound 0.316 µM, first compound 0.0999 µM): 18.1% | viability, T/C (second compound 0.316 µM, first compound 0.316 µM): 11.1% | viability, T/C (second compound 1 µM, first compound 0.000999 µM): 70.7% | viability, T/C (second compound 1 µM, first compound 0.00316 µM): 51.1% | viability, T/C (second compound 1 µM, first compound 0.00999 µM): 34.9% | viability, T/C (second compound 1 µM, first compound 0.0316 µM): 23.9% | viability, T/C (second compound 1 µM, first compound 0.0999 µM): 16.9% | viability, T/C (second compound 1 µM, first compound 0.316 µM): 8.25% | viability, T/C (second compound 3.16 µM, first compound 0.000999 µM): 34.4% | viability, T/C (second compound 3.16 µM, first compound 0.00316 µM): 20.1% | viability, T/C (second compound 3.16 µM, first compound 0.00999 µM): 15.9% | viability, T/C (second compound 3.16 µM, first compound 0.0316 µM): 9.11% | viability, T/C (second compound 3.16 µM, first compound 0.0999 µM): 7.06% | viability, T/C (second compound 3.16 µM, first compound 0.316 µM): 4.83% | viability, T/C (second compound 10 µM, first compound 0.000999 µM): 26% | viability, T/C (second compound 10 µM, first compound 0.00316 µM): 17.6% | viability, T/C (second compound 10 µM, first compound 0.00999 µM): 13.1% | viability, T/C (second compound 10 µM, first compound 0.0316 µM): 7.08% | viability, T/C (second compound 10 µM, first compound 0.0999 µM): 6.95% | viability, T/C (second compound 10 µM, first compound 0.316 µM): 5.09%

Cc1cnc(CNC(=O)c2c(=O)c3ccc(N4CCCN(C)CC4)nc3n3c2sc2ccccc23)cn1
viability, T/C (compound 0.0316 µM): 95.7% [middle of 12 runs] | viability, T/C (compound 0.1 µM): 88.5% [middle of 12 runs] | viability, T/C (compound 0.316 µM): 85.2% [middle of 12 runs] | viability, T/C (compound 1 µM): 76% [middle of 12 runs] | viability, T/C (compound 3.16 µM): 68.6% [middle of 12 runs] | viability, T/C (compound 10 µM): 54.9% [middle of 12 runs] | IC50 (compound alone, run of 03/18/2024): > 10000 nM and 7430 nM

CC(C)(O)C1CCC(Nc2ccc3ncc(-c4cccc(C(F)(F)F)c4)n3n2)CC1 (stereo unspecified)
viability, T/C (compound 0.0316 µM): 84.4% and 103% and 93.7% | viability, T/C (compound 0.1 µM): 80.4% and 88.1% and 93.2% | viability, T/C (compound 0.316 µM): 82.7% and 83.2% and 94.2% | viability, T/C (compound 1 µM): 62.6% and 55.1% and 44.4% | viability, T/C (compound 3.16 µM): 32.1% and 31.5% and 31.2% | viability, T/C (compound 10 µM): 34.5% and 39.3% and 36.5% | IC50 (curve of compound): 1640 nM and 1290 nM and 876 nM
